Legend:
Glycine receptor = Glycine receptor (Rattus norvegicus, UniProt P22771+P24524+P07727+P20781); format: cell membranes, Wistar, Spinal cord, Membrane; also: in other assays of this panel Not Active means under 50% inhibition at 10 µM
[1] = target: Kappa-type opioid receptor (Homo sapiens, UniProt P41145); assay: DRUGMATRIX: Opiate kappa (OP2, KOP) radioligand binding (ligand: [3H] Diprenorphine); format: cell membranes, HEK293, Membrane; conditions: hek293; Not Active = under 50% inhibition at 10 µM
Adenosine receptor A2a = Adenosine receptor A2a (Homo sapiens, UniProt P29274); assay: DRUGMATRIX: Adenosine A2A radioligand binding (ligand: […]); format: cell membranes, HEK293, Membrane; conditions: hek293; Not Active = under 50% inhibition at 10 µM
Caspase-1 = target: T1, Caspase-1 (Homo sapiens, UniProt P29466); design: species or system Escherichia coli;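 also: Caspase-1 enzyme inhibition assay with a peptide substrate; in other assays of this panel Not Active means under 50% inhibition at 10 µM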
T1 sequence (P29466 whole entry): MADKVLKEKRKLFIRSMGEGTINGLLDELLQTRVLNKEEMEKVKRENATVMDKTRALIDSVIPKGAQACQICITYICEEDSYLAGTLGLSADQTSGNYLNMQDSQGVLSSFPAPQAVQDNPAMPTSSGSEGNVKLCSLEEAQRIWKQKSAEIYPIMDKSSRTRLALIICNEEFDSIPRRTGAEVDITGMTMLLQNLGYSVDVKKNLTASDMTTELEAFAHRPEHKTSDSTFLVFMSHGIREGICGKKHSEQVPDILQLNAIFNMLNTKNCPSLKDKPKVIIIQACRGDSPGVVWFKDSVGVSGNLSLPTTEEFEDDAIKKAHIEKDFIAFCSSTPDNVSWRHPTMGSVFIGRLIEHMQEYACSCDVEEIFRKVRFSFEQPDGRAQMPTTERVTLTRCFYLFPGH

[2] = target: T2, Receptor-type tyrosine-protein phosphatase C (Homo sapiens, UniProt P08575); design: species or system Escherichia coli;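 also: inhibition of CD45 enzyme activity measured using DiFMUP as substrate; in other assays of this panel Not Active means under 50% inhibition at 10 µM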
T2 sequence (P08575 whole entry): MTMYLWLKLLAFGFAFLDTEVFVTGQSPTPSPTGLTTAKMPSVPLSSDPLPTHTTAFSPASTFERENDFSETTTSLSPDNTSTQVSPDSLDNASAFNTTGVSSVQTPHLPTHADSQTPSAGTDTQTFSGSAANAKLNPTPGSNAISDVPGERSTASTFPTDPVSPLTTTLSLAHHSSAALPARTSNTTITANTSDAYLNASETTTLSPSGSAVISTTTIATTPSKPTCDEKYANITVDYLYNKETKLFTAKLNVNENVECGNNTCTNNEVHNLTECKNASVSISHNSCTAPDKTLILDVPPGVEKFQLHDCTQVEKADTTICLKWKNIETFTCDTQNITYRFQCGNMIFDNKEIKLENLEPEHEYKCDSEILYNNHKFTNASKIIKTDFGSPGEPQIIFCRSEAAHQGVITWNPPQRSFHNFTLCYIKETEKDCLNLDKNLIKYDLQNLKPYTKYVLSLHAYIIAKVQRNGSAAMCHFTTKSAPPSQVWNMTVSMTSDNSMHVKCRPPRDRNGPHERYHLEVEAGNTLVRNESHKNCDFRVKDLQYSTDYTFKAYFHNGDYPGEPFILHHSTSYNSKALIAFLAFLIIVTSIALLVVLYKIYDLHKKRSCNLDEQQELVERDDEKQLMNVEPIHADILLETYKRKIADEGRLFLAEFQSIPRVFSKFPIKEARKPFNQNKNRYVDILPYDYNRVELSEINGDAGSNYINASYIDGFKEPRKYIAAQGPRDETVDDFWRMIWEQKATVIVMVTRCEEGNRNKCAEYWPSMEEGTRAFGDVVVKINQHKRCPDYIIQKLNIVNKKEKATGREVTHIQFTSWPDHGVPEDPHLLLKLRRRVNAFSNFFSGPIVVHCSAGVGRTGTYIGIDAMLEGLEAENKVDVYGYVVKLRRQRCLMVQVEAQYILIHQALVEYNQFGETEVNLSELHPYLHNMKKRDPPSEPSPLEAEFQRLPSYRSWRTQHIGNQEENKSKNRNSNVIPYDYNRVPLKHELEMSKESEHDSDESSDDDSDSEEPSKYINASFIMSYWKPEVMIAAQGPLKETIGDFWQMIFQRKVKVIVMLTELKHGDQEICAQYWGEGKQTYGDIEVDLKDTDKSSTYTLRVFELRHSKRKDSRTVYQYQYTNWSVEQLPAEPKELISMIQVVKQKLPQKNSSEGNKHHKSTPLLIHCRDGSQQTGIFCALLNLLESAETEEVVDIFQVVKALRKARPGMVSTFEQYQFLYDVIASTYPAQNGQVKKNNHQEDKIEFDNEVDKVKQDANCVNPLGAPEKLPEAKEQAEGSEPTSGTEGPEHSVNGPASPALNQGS

Measured: IC50

Adenosine receptor A2a, sequence (P29274 whole entry): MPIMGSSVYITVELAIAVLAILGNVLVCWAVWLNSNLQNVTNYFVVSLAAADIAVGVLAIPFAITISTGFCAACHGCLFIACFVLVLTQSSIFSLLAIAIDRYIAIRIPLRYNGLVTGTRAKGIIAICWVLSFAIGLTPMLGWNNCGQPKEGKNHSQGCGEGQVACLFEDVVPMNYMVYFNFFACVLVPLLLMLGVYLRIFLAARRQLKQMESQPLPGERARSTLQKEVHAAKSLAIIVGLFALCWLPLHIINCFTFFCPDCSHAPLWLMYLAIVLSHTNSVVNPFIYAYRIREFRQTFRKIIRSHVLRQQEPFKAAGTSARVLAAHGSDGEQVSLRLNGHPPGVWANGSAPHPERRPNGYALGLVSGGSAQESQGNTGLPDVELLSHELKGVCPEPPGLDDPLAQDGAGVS
Kappa-type opioid receptor, sequence (P41145 whole entry): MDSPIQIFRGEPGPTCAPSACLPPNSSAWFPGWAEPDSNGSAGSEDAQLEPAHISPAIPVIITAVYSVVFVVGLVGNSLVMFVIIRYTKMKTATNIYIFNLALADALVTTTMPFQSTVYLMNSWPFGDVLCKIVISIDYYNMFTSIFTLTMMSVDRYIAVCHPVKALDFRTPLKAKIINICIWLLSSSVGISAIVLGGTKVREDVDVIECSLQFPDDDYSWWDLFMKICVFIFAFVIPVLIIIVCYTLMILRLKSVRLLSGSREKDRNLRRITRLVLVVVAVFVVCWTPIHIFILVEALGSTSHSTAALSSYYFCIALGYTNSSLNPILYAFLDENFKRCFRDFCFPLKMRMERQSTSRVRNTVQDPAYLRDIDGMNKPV

CC(C)NCC(O)COc1ccc(CC(N)=O)cc1 (stereo not given) [ATENOLOL]
Not Active: all assays above
